Measurements as given in paper PMC9763333, “In vitro characterization of immune modulating drug-eluting immunobeads towards transarterial embolization in cancer” (Scientific Reports, 2022).
Values joined by “and” are separate entries in the source; they are usually repeats but may differ in a detail not shown here. Identical values can stand only once. “Also recorded” adds a separate entry of the source. Counter-ions that a name gives are not always drawn. Blank lines part the entries; values can stand above or below the compound they belong to.

Assays:
[1] = Drug solubilization by salt formation in acid; format: physicochemical; conditions: for pH at which each drug dissolved for loading: T in °C in parentheses in the cell (20.1 or 21.1)
Procedure, shortened: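 Drug base suspended in water and titrated with 0.1 N HCl until dissolved, at a final 2.5 mg/mL; solution lyophilized to the hydrochloride salt or used directly for DC Bead LUMI loading. GS-9620 and its decomposition product analyzed by C8 reversed-phase HPLC (UV 230 nm) and LC/MS.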

[2] = Drug loading into DC Bead LUMI; format: physicochemical; conditions: for Relative percent drug loaded in DC Bead LUMI over time / Maximum drug loaded (Triplicate), %: single replicates; for equivalent of drug loaded to sulfonated bead / Maximum drug loaded: mean ± SD; for Maximum drug loaded: n = 3, base form except Dox (salt form); for Drug: sulfonate: molar ratio at maximum loading; for Theoretical maximum loading level based on SO3− contents: per mL DC Bead LUMI, assuming 1:1 drug to sulfonate
Procedure, shortened: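 Loading done in triplicate; amount loaded = initial drug in loading solution minus drug remaining and cumulative drug withdrawn for sampling. Maximum loading taken when loading-solution concentration stopped changing, before washing; relative % loading expressed on a molar basis against available SO3^- ions, mean ± SD.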

[3] = Drug release from DC Bead LUMI in saline; format: physicochemical; conditions: for percent drug eluted from DC Bead LUMI / drug eluted from DC Bead LUMI: saline, single replicates; for percent drug eluted from DC Bead LUMI: percent of drug loaded; for release behaviour in saline: DC Bead LUMI
Procedure, shortened: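 Beads loaded with drug (62.5 µL of DC Bead LUMI) were placed in 50 mL of saline (0.9 mg/mL, pH 7.4) and rocked upright at 37 °C at speed setting 10 (70 rpm). At each sampling time, 1 mL of medium was taken for drug quantification and replaced with 1 mL of fresh saline pre-warmed to 37 °C. Cumulative release accounted for drug removed in earlier samples, and the 50 mL volume kept sink conditions.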

[4] = cited from earlier work
[5] = Drug loading into LC Bead; format: physicochemical; conditions: per 1 mL LC Bead
Method: Drug loading was performed in triplicate as previously reported[45] with slight modifications. Briefly, 1.3 molar equivalent of each drug was mixed with one molar equivalent of sulfonate group of DC Bead LUMI or LC Bead. The drug-bead mixture was agitated with upright rocking motion at a set maximum rocking speed of 10 which corresponds to 70 rpm, for 144 h at ambient temperature (Ward's® Rotating Mixers, VWR, Bridgeport, NJ). At specified time points (5, 15, 30 and 45 min and then hourly for eight hours followed by 24, 48, 72 and 144 h) a 10 µL aliquot was withdrawn from the loading solution to quantify drug loading based on the change in concentration over time. […] The concentration of drug in each aliquot of loading solution at each time point was quantified by HPLC as described above using a linear standard curve obtained from solutions of known concentration of each drug (7.8–125 μg/mL) versus the detector response as area under the curve. The amount of drug loaded at the specified time points was calculated by subtracting the amount of drug remaining from the initial amount of drug in the loading solution and the cumulative amount of drug withdrawn for sampling. The maximum drug loaded in the beads was calculated once no further change in the concentration in the loading solution could be measured and before washing the beads. […]

[6] = parameters: method as in PMID 28188808; conditions: 0.065 mmol Dox per milliliter of beads, constant agitation, depending on bead size; cited from earlier work
[7] = parameters: method as in PMID 17483878; conditions: cited from earlier work

solubilization upon addition of 0.1 N HCl ([1]; 0.1 N HCl, deionized water): did not solubilize
pH at which each drug dissolved for loading [1]: 2.11 (20.1)
Relative percent drug loaded in DC Bead LUMI over time ([2]; 5 min): 36.8467% and 31.5632% and 21.322%
Relative percent drug loaded in DC Bead LUMI over time ([2]; 15 min): 30.3231% and 39.2476% and 47.138%
Relative percent drug loaded in DC Bead LUMI over time ([2]; 30 min): 47.9681% and 46.426% and 44.5676%
Relative percent drug loaded in DC Bead LUMI over time ([2]; 45 min): 56.9526% and 51.0915% and 54.8687%
Relative percent drug loaded in DC Bead LUMI over time ([2]; 60 min): 63.8406% and 58.0947% and 63.6687%
Relative percent drug loaded in DC Bead LUMI over time ([2]; 120 min): 85.531% and 84.4265% and 85.0145%
Relative percent drug loaded in DC Bead LUMI over time ([2]; 180 min): 98.296% and 98.7957% and 94.8002%
Relative percent drug loaded in DC Bead LUMI over time ([2]; 240 min): 106.342% and 112.145% and 106.321%
Relative percent drug loaded in DC Bead LUMI over time ([2]; 300 min): 111.107% and 116.727% and 112.613%
Relative percent drug loaded in DC Bead LUMI over time ([2]; 360 min): 115.109% and 120.479% and 108.292%
Relative percent drug loaded in DC Bead LUMI over time ([2]; 420 min): 117.263% and 122.293% and 119.836%
Relative percent drug loaded in DC Bead LUMI over time ([2]; 480 min): 118.462% and 124.442% and 121.713%
Relative percent drug loaded in DC Bead LUMI over time ([2]; 1440 min): 121.282% and 124.78% and 117.021%
Relative percent drug loaded in DC Bead LUMI over time ([2]; 2880 min): 119.234% and 124.78% and 122.668%
Relative percent drug loaded in DC Bead LUMI over time ([2]; 4320 min): 118.18% and 124.96% and 121.21%
Relative percent drug loaded in DC Bead LUMI over time ([2]; 8640 min): 119.5% and 124.96% and 122.329%
drug loaded above the predicted capacity of the bead ([2]; DC Bead LUMI): approximately 23%
loading behaviour ([2]; DC Bead LUMI): slower loading
Relative percent drug loaded (maximum, percent of SO3− available on a molar basis) ([2]; DC Bead LUMI, mean (n = 3), listed as BMS-200): 122.93%
equivalent of drug loaded to sulfonated bead ([2]; DC Bead LUMI): 0.35 ± 0.01 mM drug/ml beads
Maximum drug loaded ([2]; DC Bead LUMI): 148.05 ± 2.24 mg drug/ml beads
Maximum drug loaded (Triplicate), % ([2]; DC Bead LUMI, listed as BMS-200): 121.282% and 124.83% and 122.668%
Drug: sulfonate ([2]; DC Bead LUMI): 1.223
Theoretical maximum loading level based on SO3− contents [2]: 120.40 mg and 120.4 mg
percent drug eluted from DC Bead LUMI ([3]; 5 min): 2.472% and 2.4176% and 2.385%
drug eluted from DC Bead LUMI ([3]; 5 min): 8.513 µmol and 8.629 µmol and 8.378 µmol
percent drug eluted from DC Bead LUMI ([3]; 15 min): 2.589% and 2.639% and 2.416%
percent drug eluted from DC Bead LUMI ([3]; 30 min): 2.762% and 2.728% and 2.934%
percent drug eluted from DC Bead LUMI ([3]; 45 min): 3.33% and 2.98% and 3.1337%
percent drug eluted from DC Bead LUMI ([3]; 60 min): 3.248% and 3.3497% and 3.385%
percent drug eluted from DC Bead LUMI ([3]; 120 min): 4.556% and 3.526% and 4.046%
percent drug eluted from DC Bead LUMI ([3]; 180 min): 5.055% and 4.61% and 4.461%
percent drug eluted from DC Bead LUMI ([3]; 240 min): 5.272% and 4.993% and 5.201%
percent drug eluted from DC Bead LUMI ([3]; 300 min): 5.575% and 5.37% and 5.345%
percent drug eluted from DC Bead LUMI ([3]; 360 min): 6.559% and 5.753% and 6.275%
percent drug eluted from DC Bead LUMI ([3]; 420 min): 6.666% and 5.904% and 7.0124%
percent drug eluted from DC Bead LUMI ([3]; 480 min): 7.32% and 7.2% and 7.286%
percent drug eluted from DC Bead LUMI ([3]; 1440 min): 11.7204% and 10.5374% and 10.9377%
percent drug eluted from DC Bead LUMI ([3]; 2880 min): 14.9312% and 14.241% and 13.8435%
percent drug eluted from DC Bead LUMI ([3]; 4320 min): 16.6252% and 15.679% and 15.9706%
percent drug eluted from DC Bead LUMI ([3]; 8640 min): 17.1401% and 16.2829% and 16.6995%
SMILES: COc1nc(OCc2cccc(-c3ccccc3)c2C)ccc1CNCCNC(C)=O [BMS-202]
drug eluted from DC Bead LUMI ([3]; 15 min): 8.915 µmol and 9.4174 µmol and 8.488 µmol
drug eluted from DC Bead LUMI ([3]; 30 min): 9.513 µmol and 9.737 µmol and 10.3104 µmol
drug eluted from DC Bead LUMI ([3]; 45 min): 11.4676 µmol and 10.637 µmol and 11.0105 µmol
drug eluted from DC Bead LUMI ([3]; 60 min): 11.1858 µmol and 11.9555 µmol and 11.8939 µmol
drug eluted from DC Bead LUMI ([3]; 120 min): 15.688 µmol and 12.584 µmol and 14.2155 µmol
drug eluted from DC Bead LUMI ([3]; 180 min): 17.4074 µmol and 16.4551 µmol and 15.6742 µmol
drug eluted from DC Bead LUMI ([3]; 240 min): 18.1541 µmol and 17.8191 µmol and 18.2734 µmol
drug eluted from DC Bead LUMI ([3]; 300 min): 19.198 µmol and 19.1657 µmol and 18.7818 µmol
drug eluted from DC Bead LUMI ([3]; 360 min): 22.5859 µmol and 20.5327 µmol and 22.0468 µmol
drug eluted from DC Bead LUMI ([3]; 420 min): 22.954 µmol and 21.073 µmol and 24.6387 µmol
drug eluted from DC Bead LUMI ([3]; 480 min): 25.2083 µmol and 25.6984 µmol and 25.5995 µmol
drug eluted from DC Bead LUMI ([3]; 1440 min): 40.3605 µmol and 37.6096 µmol and 38.4305 µmol
drug eluted from DC Bead LUMI ([3]; 2880 min): 51.4172 µmol and 50.828 µmol and 48.6405 µmol
drug eluted from DC Bead LUMI ([3]; 4320 min): 57.2509 µmol and 55.9606 µmol and 56.1142 µmol
drug eluted from DC Bead LUMI ([3]; 8640 min): 59.0238 µmol and 58.1158 µmol and 58.6753 µmol
release behaviour in saline [3]: slow release; also recorded: prolonged release profile
pKa (literature) [4]: 7.74 (literature) [54]

pH at which each drug dissolved for loading [1]: 4.2 (21.1)
drug loaded above the predicted capacity of the bead ([2]; DC Bead LUMI): approximately 23%
loading behaviour ([2]; DC Bead LUMI): slower loading
equivalent of drug loaded to sulfonated bead ([2]; DC Bead LUMI): 0.35 ± 0.01 mM drug/ml beads
Maximum drug loaded ([2]; DC Bead LUMI, listed as Doxorubicin HCl): 204.54 ± 3.87 mg drug/ml beads
Maximum drug loaded (Triplicate), % ([2]; DC Bead LUMI): 121.32% and 125.547% and 121.757%
Drug: sulfonate ([2]; DC Bead LUMI): 1.228
Theoretical maximum loading level based on SO3− contents [2]: 166.50 mg
Theoretical maximum loading level based on SO3− contents ([2]; listed as Doxorubicin HCl): 166.5 mg
average amount of Dox loaded into 1 mL of LC Bead [5]: 33.58 ± 3.08 mg
drug eluted from DC Bead LUMI ([3]; 30 min): 1.239 µmol and 1.282 µmol and 1.112 µmol
drug eluted from DC Bead LUMI ([3]; 60 min): 1.899 µmol and 1.906 µmol and 1.678 µmol
drug eluted from DC Bead LUMI ([3]; 120 min): 3.985 µmol and 3.46 µmol and 3.165 µmol
drug eluted from DC Bead LUMI ([3]; 240 min): 7.976 µmol and 7.077 µmol and 7.054 µmol
drug eluted from DC Bead LUMI ([3]; 300 min): 9.987 µmol and 9.178 µmol and 9.242 µmol
release behaviour in saline [3]: slow release
Dox released from DC Bead LUMI ([3]; Figure 11 legend, mean ± SD, n = 3): 74.4 ± 0.5 µmol Dox/ mL DC Bead LUMI
SMILES: COc1cccc2c1C(=O)c1c(O)c3c(c(O)c1C2=O)C[C@@](O)(C(=O)CO)C[C@@H]3O[C@H]1C[C@H](N)[C@H](O)[C@H](C)O1 [Dox, doxorubicin hydrochloride]
Maximum drug loaded ([2]; DC Bead LUMI): 204.54 ± 3.87 mg drug/ml beads and 205 ± 4 mg drug/ml beads
drug eluted from DC Bead LUMI ([3]; 5 min): 0.8697 µmol and 0.7574 µmol and 0.6743 µmol
drug eluted from DC Bead LUMI ([3]; 15 min): 0.9785 µmol and 0.9763 µmol and 0.879 µmol
drug eluted from DC Bead LUMI ([3]; 45 min): 1.546 µmol and 1.5359 µmol and 1.496 µmol
drug eluted from DC Bead LUMI ([3]; 180 min): 6.141 µmol and 6.4405 µmol and 5.733 µmol
drug eluted from DC Bead LUMI ([3]; 360 min): 12.6965 µmol and 11.2108 µmol and 10.9569 µmol
drug eluted from DC Bead LUMI ([3]; 420 min): 14.5125 µmol and 12.8898 µmol and 12.4195 µmol
drug eluted from DC Bead LUMI ([3]; 480 min): 16.4266 µmol and 14.4776 µmol and 14.2688 µmol
drug eluted from DC Bead LUMI ([3]; 1440 min): 47.172 µmol and 44.3546 µmol and 42.6335 µmol
drug eluted from DC Bead LUMI ([3]; 2880 min): 68.0842 µmol and 61.0855 µmol and 60.2496 µmol
drug eluted from DC Bead LUMI ([3]; 4320 min): 76.8802 µmol and 71.2335 µmol and 68.2708 µmol
drug eluted from DC Bead LUMI ([3]; 8640 min): 74.6523 µmol and 73.8043 µmol and 71.6405 µmol
time to load drug to DC Bead LUMI [6]: 2 to 3 h
previously reported amount of Dox loaded into LC Bead [7]: 39.0 ± 3.8 mg/mL
